The target of one assay is LSD1 (Homo sapiens (Human), UniProt O60341). Description: In vitro enzyme inhibition assay - LSD1 (HTRF). Format: biochemical. As for the experimental part: 1. In Vitro Enzyme Inhibition Assay—LSD1
Initially, a master solution of 90 μM test compound (dissolved in DMSO) was prepared and sequentially diluted with DMSO in a 5-fold concentration gradient to yield a total of 9 concentrations of the compound working solution 1 (90×). Subsequently these 9 concentrations of working solution 1 were sequentially diluted by a 30-fold concentration gradient, i.e., 2 μL of working solution 1 was aspirated and added to 58 μL of Buffer, mixed on a vortex mixer with sufficient shaking to yield 9 concentrations of the screening test compound working solution 2 (3×). […] The mixture was incubated at room temperature for 15 minutes. […] Afterward, 2 μL of a termination solution (containing 5.4 mM 2-PCPA) was added to each well, mixed evenly, and incubated for another 15 minutes. Finally 4 μL of a pre-mixed antibody solution of Eu-anti H3K4 (PerkinElmer, TRF0404-D) and allophycocyanin (Prozyme, PJ27S) (1:1) was added to each well, mixed evenly, and incubated for 60 minutes. […] The inhibition rate was calculated through the following formula: […]
(§1) Note: ‘Negative’ refers to the group without the inhibitor; ‘Blank’ refers to the group without the enzyme.
(§2) The IC50 value was calculated by fitting the inhibition rate by GraphPad Prism software, employing log (inhibitor) vs. response-Variable Slope (four parameters) model.

In a further assay the target is pan-HDAC. The experiment in a line: In vitro enzyme inhibition assay - HDAC (HDAC-Glo I/II), pan-HDAC. Format: biochemical. As for the experimental part:
2. In Vitro Enzyme Inhibition Assay—HDAC
The effect of the compound on the enzymatic activity of pan-HDAC and two isoforms (HDAC1 and HDAC8) was examined using the HDAC-Glo I/II Assay and Screening System assay to assess the level of inhibition of HDAC protease activity and selectivity in each isoform. The proteins and detection reagents were from the HDAC-Glo™ I/II Assay and Screening System (Promega). A 1 mM stock solution of the compound was prepared in DMSO and diluted in a 5-fold gradient to create a series of 8 concentrations, and a specific volume of the highest concentration was diluted 25 times with HDAC Buffer to obtain 4× working solution of the compound. […] The 384-well plate was then read on a multifunctional microplate reader, with the Luminescence channel selected to record Luminescence values (RLU). The inhibition rate was calculated using the following formula: […]
as §1, §2

The next assay relates to NCI-H1417 cells. Description: In vitro cell inhibition assay - H1417 cell proliferation (CellTiter-Glo). As to conditions: Homo sapiens, NCI-H1417, H1417 small cell lung cancer cell proliferation. It is filed as cell-based. The method, then:
3. In Vitro Cell Inhibition Assay—H1417 Cell Proliferation
The inhibitory effect of the compounds on cell proliferation was assessed by detecting the number of viable cells using the CellTiter-Glo® reagent. […] The compounds were sequentially diluted in a 5-fold concentration gradient with DMSO to obtain 8 different concentrations o. These were diluted with BEGM (containing 10% FBS) cell culture medium to obtain the compound working solution (2×), which was added to the cell supernatant at 100 μL per well. The incubation continued for 7 days at 37° C., 5% CO2. The plate was then removed and equilibrated to room temperature (25° C.) along with the CellTiter-Glo® mixing reagent for 10-30 minutes. After centrifugation, 100 μL of the culture medium was carefully aspirated from each well, and 85 μL of CellTiter-Glo® reagent was added. The cells were thoroughly mixed with the CellTiter-Glo® mixing reagent using a microplate shaker for 2 min. and then incubated at room temperature for 10 min. The 96-well plate was subsequently placed on a multifunctional microplate reader to record the Luminescence values (RLU). • The inhibition rate was calculated using the following formula: […]
(§3) Note: ‘Negative’ refers to the group without inhibitors; ‘Blank’ refers to the group without cells.
(§4) The IC50 value was determined by fitting the inhibition rate by GraphPad Prism software.
(In general: In ATP-based viability assays light output follows the ATP content of the culture.)

The subject of a further assay is NCI-H69 cells. The experiment in a line: In vitro cell inhibition assay - NCI-H69 cell proliferation (CellTiter-Glo). It is filed as cell-based. As to conditions: Homo sapiens, NCI-H69, H69 small cell lung cancer cell proliferation. As for the experimental part: 4. In Vitro Cell Inhibition Assay—NCI-H69 Cell Proliferation
The inhibitory effect of the compounds on cell proliferation was assessed by detecting the number of viable cells using the CellTiter-Glo® reagent. NCI-H69 cells in the logarithmic growth phase were collected and inoculated into transparent bottom 96-well plates at a density 1×10^3 cells per well with 100 μL medium, and incubated at 37° C., 5% CO2 overnight. The compounds were sequentially diluted in a 5-fold concentration gradient with DMSO to obtain 8 different concentrations These were then diluted with RPMI-640 (containing 20% FBS) cell culture medium to obtain the compounds working solution (2×), which was added to the cell supernatant at 100 μL per well. The incubation continued for 7 days at 37° C., 5% CO2. The plate was then removed and equilibrated to room temperature (25° C.) along with the CellTiter-Glo® mixing reagent for 10-30 minutes. After centrifugation at 1200 rpm for 5 minutes, 120 μL of the culture medium was carefully aspirated from each well, and 60 μL of CellTiter-Glo® reagent was added. The cells were thoroughly mixed with the CellTiter-Glo® mixing reagent using a microplate shaker for 2 min. and then incubated at room temperature for 10 min. The 96-well plate was subsequently placed on a multifunctional microplate reader to record the Luminescence values (RLU).
The inhibition rate was calculated using the following formula: […]
as §3, §4

Where a name gives a salt, the structure may show the parent alone.

Consider `COc1ccc(-c2c(OCCCCCCC(=O)NO)cc(N3CCC(N)CC3)nc2-c2ccc(C#N)c(F)c2)cc1F` [Example 3, 7-(6-(4-Aminopiperidin-1-yl)-2-(4-cyano-3-fluorophenyl)-3-(3-fluoro-4-methoxyphenyl)pyridin-4-yl)oxy-N-hydroxyheptanamide hydrochloride], for which the IC50 (as a rule, the point on the concentration scale where inhibition reaches its midpoint) on LSD1 was found to be 13.7 nM; at pan-HDAC, 29 nM; in the assay on NCI-H1417 cells, 226 nM.
In the same order, the values of `CS(=O)(=O)c1ccc(-c2c(OCCCCCCC(=O)NO)cc(N3CCC(N)CC3)nc2-c2ccc(C#N)c(F)c2)cc1` [Example 4, 7-(6-(4-Aminopiperidin-1-yl)-2-(4-cyano-3-fluorophenyl)-3-(4-(methylsulfonyl)phenyl)pyridin-4-yl)oxy)-N-hydroxyheptanamide hydrochloride] are 11.9 nM, 12 nM and 209 nM.
`N#Cc1ccc(-c2nc(N3CCC(N)CC3)cc(OCCCCCCC(=O)NO)c2-c2ccc(N)cc2)cc1F` [Example 5, 7-(3-(4-Aminophenyl)-6-(4-aminopiperidin-1-yl)-2-(4-cyano-3-fluorophenyl)pyridin-4-yl)oxy)-N-hydroxyheptanamide hydrochloride]: the values for the IC50 on pan-HDAC and in the assay with NCI-H1417 cells were 15 nM and 128 nM, respectively.
For the compound `N#Cc1ccc(-c2nc(N3CCC(N)CC3)cc(OCCCCCCC(=O)NO)c2-c2ccc(F)c(F)c2)cc1F` [Example 6, 7-(6-(4-Aminopiperidin-1-yl)-2-(4-cyano-3-fluorophenyl)-3-(3,4-difluorophenyl)pyridin-4-yl)oxy)-N-hydroxyheptanamide hydrochloride], the IC50 against LSD1 was determined as 254 nM; against pan-HDAC it was 134 nM.
The like results for `Cc1cc(-c2c(OCCCCCCC(=O)NO)cc(N3CCC(N)CC3)nc2-c2ccc(C#N)c(F)c2)ccn1` [Example 10, 7-((6-(4-Aminopiperidin-1-yl)-2-(4-cyano-3-fluorophenyl)-2′-methyl-[3,4′-bipyridin]-4-yl)oxy)-N-hydroxyheptanamide hydrochloride] were, in that order, 75.4 nM and 39 nM.
In the case of `COc1ccc(-c2c(OCCCCCCC(=O)NO)cc(N3CCC(N)CC3)nc2-c2ccc(C#N)cc2)cc1O` [Example 12, 7-((6-(4-Aminopiperidin-1-yl)-2-(4-cyanophenyl)-3-(3-hydroxy-4-methoxyphenyl)pyridin-4-yl)oxy)-N-hydroxyheptanamide], the results for the IC50 at LSD1 and on pan-HDAC were 0.92 nM and 7.31 nM, respectively.
As for `Cc1nc(N2CCC(N)CC2)c(C#N)c(-c2ccc(C#N)c(F)c2)c1-c1ccc(OCCCCCCC(=O)NO)c(O)c1` [Example 26, 7-(4-(6-(4-Aminopiperidin-1-yl)-5-cyano-4-(4-cyano-3-fluorophenyl)-2-methylpyridin-3-yl)-2-hydroxyphenoxy)-N-hydroxyheptanamide hydrochloride], the IC50 against LSD1 was determined as 0.12 nM; against pan-HDAC it was 35 nM; with NCI-H1417 cells it was 152 nM.
The like results for `COc1ccc(-c2c(-c3ccc(C#N)c(F)c3)nc(N3CCC(NCCCCCCC(=O)NO)CC3)n3ccnc23)cc1O` [Example 35, 7-((1-(7-(4-Cyano-3-fluorophenyl)-8-(3-hydroxy-4-methoxy-phenyl)imidazo[1,2-c]pyrimidin-5-yl)piperidin-4-yl)amino)-N-hydroxy-heptanamide hydrochloride] were, in that order, 4.63 nM, 266 nM and 188 nM.
In the same order, the values of `N#Cc1ccc(-c2nc(N3CCC(N)CC3)n3ccnc3c2-c2ccc(NC(=O)CCCCCCC(=O)NO)c(O)c2)cc1F` [Example 57, N^1-(4-(5-(4-aminopiperidin-1-yl)-7-(4-cyano-3-fluorophenyl)imidazo[1,2-c]pyrimidin-8-yl)-2-hydroxyphenyl)-N^8-hydroxyoctanediamine diformate] are 0.26 nM, 72 nM and 14.5 nM.
With `COc1ccc(-c2cnc(N3CCC(NCc4ccc(C5=C(C(=O)NO)CCC5)cc4)CC3)c(C#N)c2-c2ccc(C#N)c(F)c2)cc1O` [Example 163, 2-(4-(((1-(3-Cyano-4-(4-cyano-3-fluorophenyl)-5-(3-hydroxy-4-methoxyphenyl)pyridin-2-yl)piperidin-4-yl)amino)methyl)phenyl)-N-hydroxycyclopent-1-ene-1-carboxamide formate], the IC50 with NCI-H1417 cells was 4.97 nM; with NCI-H69 cells, 1400 nM.
As for `COc1ccc(-c2cnc(N3CCC(NCc4ccc(C5CC5C(=O)NO)cc4)CC3)c(C#N)c2-c2ccc(C#N)c(F)c2)cc1O` (stereo not shown) [Example 167, 2-(4-((1-(3-Cyano-4-(4-cyano-3-fluorophenyl)-5-(3-hydroxy-4-methoxyphenyl)pyridin-2-yl)piperidin-4-yl)amino)methyl) phenyl)-N-hydroxycyclopropane-1-carboxamide formate], the IC50 against LSD1 is 0.37 nM; in the assay on NCI-H1417 cells, 0.39 nM; in the assay on NCI-H69 cells, 381 nM.
In the case of `COc1ccc(-c2cnc(N3CCC(NCc4ccc(/C=C/CC(=O)NO)cc4)CC3)c(C#N)c2-c2ccc(C#N)c(F)c2)cc1O` [Example 169, (E)-4-(4-(((1-(3-Cyano-4-(4-cyano-3-fluorophenyl)-5-(3-hydroxy-4-methoxyphenyl)pyridin-2-yl)piperidin-4-yl)amino)methyl)phenyl)-N-hydroxybut-3-enamide formate], the IC50 in the assay on NCI-H1417 cells was determined as 2.33 nM; in the assay with NCI-H69 cells it was 310 nM.
With `COc1ccc(-c2cnc(N3CCC(NCc4ccc(/C=C(\C)C(=O)NO)cc4)CC3)c(C#N)c2-c2ccc(C#N)c(F)c2)cc1O` [Example 172, (E)-3-(4-(((1-(3-Cyano-4-(4-cyano-3-fluorophenyl)-5-(3-hydroxy-4-methoxyphenyl)pyridin-2-yl)piperidin-4-yl)amino)methyl)phenyl)-N-hydroxy-2-methylacrylamide formate], the IC50 was found to be 0.74 nM against LSD1, 1.71 nM in the assay on NCI-H1417 cells and 1280 nM with NCI-H69 cells.
Consider `COc1ccc(-c2cnc(N3CCC(NCc4ccc(OCC(=O)NO)nc4)CC3)c(C#N)c2-c2ccc(C#N)c(F)c2)cc1O` [Example 174, 2-((5-(((1-(3-Cyano-4-(4-cyano-3-fluorophenyl)-5-(3-hydroxy-4-methoxyphenyl)pyridin-2-yl)piperidin-4-yl)amino)methyl)pyridin-2-yl)oxy)-N-hydroxyacetamide formate], for which the IC50 with NCI-H1417 cells was 8.67 nM; in the assay on NCI-H69 cells, 4170 nM.
The like results for `O=C(/C=C/c1ccc(CNC(=O)c2cc(CN[C@@H]3C[C@H]3c3ccc(F)cc3)nc(-c3ccc(-n4cccn4)cc3)n2)cc1)NO` [Example 232, 2-(4-(1H-pyrazol-1-yl)phenyl)-6-((((1R,2S)-2-(4-fluorophenyl)cyclopropyl)amino)methyl)-N-(4-((E)-3-(hydroxyamino)-3-oxoprop-1-en-1-yl)benzyl)pyrimidine-4-carboxamide formate] were, in that order, 32.1 nM and 160 nM.

Values taken from patent US20250304549A1, “HYDROXYAMIDE DERIVATIVE AND USE THEREOF” (SICHUAN HUIYU PHARMACEUTICAL CO., LTD., priority 2022, published 2025).
